# Reference: US10472347B2, “Aminopyrazine compounds with A2A antagonist properties” (Merck Sharp & Dohme Corp., priority 2014, dated 2019)
# Target: T1, human A2a receptor (Homo sapiens, UniProt P29274)
# T1 construct: purchased Perkin-Elmer RBHA2AM400UA; host or cells: HEK293 cells (membranes)
# Assay: A2a competition binding assay, Scintillation Proximity technology
# Conditions: membranes from HEK293 cells expressing human A2a receptor; Ki by Cheng-Prusoff equation
# How it was run: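 Membranes from HEK293 cells expressing human A2a, adenosine deaminase-treated, incubated 1 h at room temperature with compound (3000 to 0.15 nM) and 0.5 nM tritiated pyrazolotriazolopyrimidine radioligand on WGA SPA beads in Ca/Mg-free PBS + 10 mM MgCl2. Non-specific binding with 1 μM CGS15943; Ki by Cheng-Prusoff.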
# T1 sequence (P29274 whole entry): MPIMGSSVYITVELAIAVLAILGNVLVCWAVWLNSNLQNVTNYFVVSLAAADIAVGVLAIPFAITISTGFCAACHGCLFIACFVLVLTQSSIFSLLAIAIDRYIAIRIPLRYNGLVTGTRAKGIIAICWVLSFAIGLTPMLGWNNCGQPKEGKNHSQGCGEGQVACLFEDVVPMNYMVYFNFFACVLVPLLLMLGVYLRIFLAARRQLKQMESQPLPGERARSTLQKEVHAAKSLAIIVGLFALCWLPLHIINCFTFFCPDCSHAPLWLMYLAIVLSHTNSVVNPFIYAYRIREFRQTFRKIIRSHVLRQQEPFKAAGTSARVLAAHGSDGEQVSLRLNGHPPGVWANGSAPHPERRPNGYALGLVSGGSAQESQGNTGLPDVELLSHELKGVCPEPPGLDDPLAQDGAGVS
row,Structure (SMILES),Ki
1,"Cc1cnn(-c2nc(N)c(C(=O)N[C@@H]3CCc4ccccc43)nc2Cl)c1 [Ex-336, 3-amino-6-chloro-N-[(1R)-2,3-dihydro-1H-inden-1-yl]-5-(4-methyl-1H-pyrazol-1-yl)pyrazine-2-carboxamide]",135 nM
2,"Cc1cnn(-c2nc(N)c(C(=O)NCc3ncccc3C)nc2Cl)c1 [Ex-337, 3-amino-6-chloro-5-(4-methyl-1H-pyrazol-1-yl)-N-[(3-methylpyridin-2-yl)methyl]pyrazine-2-carboxamide]",11.2 nM
3,"Cc1ccn(-c2nc(N)c(C(=O)NCc3ccccc3C(F)(F)F)nc2Cl)n1 [Ex-338, 3-amino-6-chloro-5-(3-methyl-1H-pyrazol-1-yl)-N-[2-(trifluoromethyl)benzyl] pyrazine-2-carboxamide]",133 nM
4,"Cc1ccn(-c2nc(N)c(C(=O)N[C@@H]3CCc4ccccc43)nc2Cl)n1 [Ex-339, 3-amino-6-chloro-N-[(1R)-2,3-dihydro-1H-inden-1-yl]-5-(3-methyl-1H-pyrazol-1-yl)pyrazine-2-carboxamide]",117 nM
5,"Cc1cnn(-c2nc(N)c(C(=O)NCc3cccc4cccnc34)nc2Cl)c1 [Ex-340, 3-amino-6-chloro-5-(4-methyl-1H-pyrazol-1-yl)-N-(quinolin-8-ylmethyl)pyrazine-2-carboxamide]",12.8 nM
6,"Cc1cnn(-c2nc(N)c(C(=O)NCc3ncccc3C)nc2C)c1 [Ex-341, 3-amino-6-methyl-5-(4-methyl-1H-pyrazol-1-yl)-N-[(3-methylpyridin-2-yl)methyl]pyrazine-2-carboxamide]",105 nM
7,"Cc1cnn(-c2nc(N)c(C(=O)NCc3nccc4ccccc34)nc2C)c1 [Ex-342, 3-amino-N-(isoquinolin-1-ylmethyl)-6-methyl-5-(4-methyl-1H-pyrazol-1-yl)pyrazine-2-carboxamide]",122 nM
8,"Cc1cnn(-c2nc(N)c(C(=O)NCc3ncccc3C(F)(F)F)nc2Cl)c1 [Ex-343, 3-amino-6-chloro-5-(4-methyl-1H-pyrazol-1-yl)-N-{[3-(trifluoromethyl)pyridin-2-yl]methyl}pyrazine-2-carboxamide]",35.9 nM
9,"Cc1cnn(-c2nc(N)c(C(=O)NCc3ccc(F)cc3F)nc2Cl)n1 [Ex-344, 3-amino-6-chloro-N-(2,4-difluorobenzyl)-5-(4-methyl-2H-1,2,3-triazol-2-yl)pyrazine-2-carboxamide]",31 nM
10,"Cc1cnn(-c2nc(N)c(C(=O)NCc3ncccc3C)nc2Cl)n1 [Ex-345, 3-amino-6-chloro-N-[(3-methylpyridin-2-yl)methyl]-5-(4-methyl-2H-1,2,3-triazol-2-yl)pyrazine-2-carboxamide]",6 nM
11,"Cc1cnn(-c2nc(N)c(C(=O)NC3CCNc4ccccc43)nc2Cl)n1 (centres unmarked) [Ex-346, 3-amino-6-chloro-5-(4-methyl-2H-1,2,3-triazol-2-yl)-N-(1,2,3,4-tetrahydroquinolin-4-yl)pyrazine-2-carboxamide]",397 nM
12,"Cc1nc(C(=O)NCc2cccc3cccnc23)c(N)nc1-n1cccn1 [Ex-347, 3-amino-6-methyl-5-(1H-pyrazol-1-yl)-N-(quinolin-8-ylmethyl)pyrazine-2-carboxamide]",46.4 nM
13,"Cc1cnn(-c2nc(N)c(C(=O)NCc3cccc4cccnc34)nc2Cl)n1 [Ex-348, 3-amino-6-chloro-5-(4-methyl-2H-1,2,3-triazol-2-yl)-N-(quinolin-8-ylmethyl)pyrazine-2-carboxamide]",10.1 nM
14,"Cc1cnn(-c2nc(N)c(C(=O)N[C@H](CO)c3ccccc3)nc2Cl)c1 [Ex-349, 3-amino-6-chloro-N-[(1S)-2-hydroxy-1-phenylethyl]-5-(4-methyl-1H-pyrazol-1-yl)pyrazine-2-carboxamide]",180 nM
15,"Cc1cnn(-c2nc(N)c(C(=O)NCc3ccc4[nH]ccc4c3)nc2Cl)c1 [Ex-350, 3-amino-6-chloro-N-(1H-indol-5-ylmethyl)-5-(4-methyl-1H-pyrazol-1-yl)pyrazine-2-carboxamide]",630 nM
16,"Cc1cnn(-c2nc(N)c(C(=O)NCc3nc4ccccc4n3C)nc2Cl)c1 [Ex-351, 3-amino-6-chloro-N-[(1-methyl-1H-benzimidazol-2-yl)methyl]-5-(4-methyl-1H-pyrazol-1-yl)pyrazine-2-carboxamide]",315 nM
17,"Cc1cnn(-c2nc(N)c(C(=O)NCc3cccc4cc[nH]c34)nc2Cl)c1 [Ex-352, 3-amino-6-chloro-N-(1H-indol-7-ylmethyl)-5-(4-methyl-1H-pyrazol-1-yl)pyrazine-2-carboxamide]",51.1 nM
18,"Cc1cnn(-c2nc(N)c(C(=O)NCc3cccc4[nH]ccc34)nc2Cl)c1 [Ex-353, 3-amino-6-chloro-N-(1H-indol-4-ylmethyl)-5-(4-methyl-1H-pyrazol-1-yl)pyrazine-2-carboxamide]",49 nM
19,"Cc1cnn(-c2nc(N)c(C(=O)NCc3ccc4cc[nH]c4c3)nc2Cl)c1 [Ex-354, 3-amino-6-chloro-N-(1H-indol-6-ylmethyl)-5-(4-methyl-1H-pyrazol-1-yl)pyrazine-2-carboxamide]",390 nM

row,Structure (SMILES),Ki
1,"Cc1cnn(-c2nc(N)c(C(=O)NCc3nc4ccccc4s3)nc2Cl)c1 [Ex-355, 3-amino-N-(1,3-benzothiazol-2-ylmethyl)-6-chloro-5-(4-methyl-1H-pyrazol-1-yl)pyrazine-2-carboxamide]",543 nM
2,"Cc1cnn(-c2nc(N)c(C(=O)NCc3nc4ccccc4o3)nc2Cl)c1 [Ex-356, 3-amino-N-(1,3-benzoxazol-2-ylmethyl)-6-chloro-5-(4-methyl-1H-pyrazol-1-yl)pyrazine-2-carboxamide]",4.3 nM
3,"Cc1cnn(-c2nc(N)c(C(=O)NCc3cccc4nccnc34)nc2Cl)c1 [Ex-357, 3-amino-6-chloro-5-(4-methyl-1H-pyrazol-1-yl)-N-(quinoxalin-5-ylmethyl)pyrazine-2-carboxamide]",69.4 nM
4,"Cc1cnn(-c2nc(N)c(C(=O)NCc3ccccc3)nc2Cl)c1 [Ex-358, 3-amino-N-benzyl-6-chloro-5-(4-methyl-1H-pyrazol-1-yl)pyrazine-2-carboxamide]",73.3 nM
5,"Cc1cnn(-c2nc(N)c(C(=O)NCc3cn4ccsc4n3)nc2Cl)c1 [Ex-359, 3-amino-6-chloro-N-(imidazo[2,1-b][1,3]thiazol-6-ylmethyl)-5-(4-methyl-1H-pyrazol-1-yl)pyrazine-2-carboxamide]",90 nM
6,"Cc1cnn(-c2nc(N)c(C(=O)NCc3cnc4ccccn34)nc2Cl)c1 [Ex-360, 3-amino-6-chloro-N-(imidazo[1,2-a]pyridin-3-ylmethyl)-5-(4-methyl-1H-pyrazol-1-yl)pyrazine-2-carboxamide]",615 nM
7,"Cc1cnn(-c2nc(N)c(C(=O)NCc3cncc4ccccc34)nc2Cl)c1 [Ex-361, 3-amino-6-chloro-N-(isoquinolin-4-ylmethyl)-5-(4-methyl-1H-pyrazol-1-yl)pyrazine-2-carboxamide]",63.2 nM
8,"Cc1cnn(-c2nc(N)c(C(=O)NCc3cnn4ccccc34)nc2Cl)c1 [Ex-362, 3-amino-6-chloro-5-(4-methyl-1H-pyrazol-1-yl)-N-(pyrazolo[1,5-a]pyridin-3-ylmethyl)pyrazine-2-carboxamide]",143 nM
9,"Cc1cnn(-c2nc(N)c(C(=O)NCc3cccc4c3C(=O)NC4)nc2Cl)c1 [Ex-363, 3-amino-6-chloro-5-(4-methyl-1H-pyrazol-1-yl)-N-[(3-oxo-2,3-dihydro-1H-isoindol-4-yl)methyl]pyrazine-2-carboxamide]",0.5 nM
10,"Cc1cccnc1CNC(=O)c1nc(C)c(-c2nc(C(F)(F)F)co2)nc1N [Ex-379, 3-amino-6-methyl-N-[(3-methylpyridin-2-yl)methyl]-5-[4-(trifluoromethyl)-1,3-oxazol-2-yl]pyrazine-2-carboxamide]",1490 nM
11,"Cc1coc(-c2nc(N)c(C(=O)NCc3ncccc3C)nc2C)n1 [Ex-380, 3-amino-6-methyl-5-(4-methyl-1,3-oxazol-2-yl)-N-[(3-methylpyridin-2-yl)methyl]pyrazine-2-carboxamide]",0.384 nM
12,"Cc1cccnc1CNC(=O)c1nc(C)c(-c2nc(C)c(C)o2)nc1N [Ex-381, 3-amino-5-(4,5-dimethyl-1,3-oxazol-2-yl)-6-methyl-N-[(3-methylpyridin-2-yl)methyl]pyrazine-2-carboxamide]",80.5 nM
13,"COCc1coc(-c2nc(N)c(C(=O)NCc3ncccc3C)nc2C)n1 [Ex-382, 3-amino-5-[4-(methoxymethyl)-1,3-oxazol-2-yl]-6-methyl-N-[(3-methylpyridin-2-yl)methyl]pyrazine-2-carboxamide]",38.4 nM
14,"Cc1cnc(-c2nc(N)c(C(=O)NCc3ncccc3C)nc2C)o1 [Ex-383, 3-amino-6-methyl-5-(5-methyl-1,3-oxazol-2-yl)-N-[(3-methylpyridin-2-yl)methyl]pyrazine-2-carboxamide]",6.4 nM
15,"Cc1cccnc1CNC(=O)c1nc(C)c(-c2ncc(C(F)(F)F)o2)nc1N [Ex-384, 3-amino-6-methyl-N-[(3-methylpyridin-2-yl)methyl]-5-[5-(trifluoromethyl)-1,3-oxazol-2-yl]pyrazine-2-carboxamide]",63.7 nM
16,"N#Cc1nc(C(=O)NCc2cccc3cccnc23)c(N)nc1-n1cccn1 [Ex-385, 3-amino-6-cyano-5-(1H-pyrazol-1-yl)-N-(quinolin-8-ylmethyl)pyrazine-2-carboxamide]",0.6 nM
17,"N#Cc1nc(C(=O)NCc2ncccc2C(F)(F)F)c(N)nc1-c1ncco1 [Ex-386, 3-amino-6-cyano-5-(1,3-oxazol-2-yl)-N-{[3-(trifluoromethyl)pyridin-2-yl]methyl}pyrazine-2-carboxamide]",0.3 nM
18,"Cc1cnn(-c2nc(N)c(C(=O)NCc3cccc4cccnc34)nc2C(F)F)c1 [Ex-387, 3-amino-6-(difluoromethyl)-5-(4-methyl-1H-pyrazol-1-yl)-N-(quinolin-8-ylmethyl)pyrazine-2-carboxamide]",2.8 nM
19,"Nc1nc(-n2nccn2)c(CO)nc1C(=O)NCc1cccc2cccnc12 [Ex-388, 3-amino-6-(hydroxymethyl)-N-(quinolin-8-ylmethyl)-5-(2H-1,2,3-triazol-2-yl)pyrazine-2-carboxamide]",2.5 nM
